# Assay results reported in patent US10016424B2, “Method and pharmaceutical composition for use in the treatment of epilepsy” (INSERM (Institut National de la Sante et de la Recherche …, priority 2013, dated 2018).
# Read-outs that look alike come from different tables or passages of the source.
# What was measured:
# [1] = system: dentate gyrus of organotypic slices; test: Spontaneous interictal-like activity, extracellular field recordings in pilocarpine-treated organotypic hippocampal slice cultures; type: cell-based, mouse
# Protocol: (§1) Hippocampal/entorhinal cortex slices (350 μm) were prepared from pre-genotyped GluK2−/− and WT mice (P9-10, FVB/N background) using a McIlwain tissue chopper. Slices were placed on mesh inserts (Millipore # PICMORG50) inside culture dishes containing 1 ml of the following medium: MEM 50%, HS 25%, HBSS 25%, HEPES 15 mM glucose 6.5 mg/ml and insulin 0.1 mg/ml. Culture medium was changed every 2-3 days and slices maintained in an incubator at 37° C./5% CO2. Pilocarpine (0.5 μM) was added to the medium at 5 D.I.V and removed at 7 D.I.V; slices were utilized for experiments from 9 D.I.V.
# Cultured or acute slices were individually transferred to a recording chamber maintained at 30-32° C. and continuously perfused (2 ml/min) with oxygenated normal or adapted ACSF containing 5 μM gabazine. Local field potentials were made in the granule cell layer of the DG with glass electrodes (2-3 MΩ; filled with normal ACSF) using a DAM-80 amplifier (low filter, 1 Hz; […], 3 KHz; World Precision Instruments, Sarasota, Fla.). For evoked synaptic transmission, electrical stimulation was performed with a bipolar NiCh electrode (#762000, AM systems). Whole-cell voltage-clamp recordings of DGCs were made using tight-seal electrodes (5-8 MΩ) filled with an internal solution containing the following (in mM): 135 gluconic acid, 135 CsOH, 10 MgCl2, 0.1 CaCl2, 1 EGTA, 10 HEPES, 2 MgATP, 0.4 NaGTP, and 0.5% biocytin, pH 7.25. We used a Multiclamp 700B amplifier (Molecular Devices): data were filtered at 2 kHz, digitized (20 kHz) with a Digidata 1440A (Molecular Devices) to a PC, and acquired using Clampex 10.1 software (PClamp, Molecular Devices). Signals were analyzed off-line using Clampfit 9.2 (PClamp) and MiniAnalysis 6.0.1 (Synaptosoft, Decatur, Ga.). In organotypic slices, spontaneous EPSCs were recorded at the reversal potential for GABAergic currents (Vh=−70 mV). To characterize the nature and kinetic properties of fast and slow events, miniature EPSCs (mEPSCs) evoked in Sr2+ conditions (external Ca2+ was substituted with 1.2 mM Sr2+) were recorded in DGCs from GluK2−/− and WT slices. Electrical stimulation was made in the molecular layer in the continued presence of 5 μM gabazine and 40 μM D-APV; asynchronous mEPSCs were measured during the 300 ms period after the stimulus artifact. […] In cultured slices, visual representation of time-frequency analysis of local field potentials was performed using Autosignal software (Seasolve 1.7). In brief, field activity was highpass-filtered (>100 Hz) and time-frequency analysis performed using a continuous wavelet (Morlet) that reported integrated power (time-integral-squared amplitude, TISA) across time. Filtered traces were also analyzed by Fourier analysis (Hamming) using Clampfit 9.2. In acute hippocampal slices, intensity of antidromically-evoked bursts was quantified using coastline index (Epsztein et al., 2005).
# The role of KARs in spontaneous epileptiform activity was then tested using extracellular field recordings in cultured slices. Recordings were performed in 5 mM K+-containing ACSF and in the presence of 5 μM gabazine in order to enhance neuronal excitability and to reliably record stereotyped spontaneous interictal-like activity (Berdichevsky et al., 2012).
# [2] = system: KAR-mediated EPSCs at mossy fiber synapses; test: Evoked KAR-mediated EPSCs at recurrent mossy fiber synapses in acute hippocampal slices from pilocarpine-treated mice; type: cell-based, mouse; settings: 1 μM; DGCs from WT pilocarpine-treated mice; data not shown
# Protocol: All experiments were approved by the Institut National de la Santé et de la Recherche Médicale animal care and use committee of May 29, 2001 (2001-464) and the European community council directive of Nov. 24, 1986 (86/609/EEC). Mice (FVB/N background) had access to food and water ad libitum and were housed under a 12 h light/dark cycle at 22-24° C. Male GluK2−/− and WT mice (P60-80) were given scopolamine (1 mg/kg) subcutaneously (s.c.) 15 minutes prior to s.c. administration of pilocarpine (200-600 mg/kg). A ramp protocol was used whereby animals were given an initial dose of 200 mg/kg followed by half-doses every 30 minutes until seizures appeared. […] Diazepam (10 mg/kg) was administered 45 minutes after onset of SE. […]
# Cultured or acute slices were individually transferred to a recording chamber maintained at 30-32° C. and continuously perfused (2 ml/min) with oxygenated normal or adapted ACSF containing 5 μM gabazine. […] Signals were analyzed off-line using Clampfit 9.2 (PClamp) and MiniAnalysis 6.0.1 (Synaptosoft, Decatur, Ga.). In organotypic slices, spontaneous EPSCs were recorded at the reversal potential for GABAergic currents (Vh=−70 mV). To characterize the nature and kinetic properties of fast and slow events, miniature EPSCs (mEPSCs) evoked in Sr2+ conditions (external Ca2+ was substituted with 1.2 mM Sr2+) were recorded in DGCs from GluK2−/− and WT slices. […]
# KARs = molecular target: T1, KARs (Mus musculus, UniProt P39087+Q61626); type: cell-based
# T1 construct: from tissue; host or cells: dentate granule cells in pilocarpine-treated organotypic hippocampal/entorhinal slice cultures from WT mice (FVB/N)
# T1 sequence (P39087 32-908): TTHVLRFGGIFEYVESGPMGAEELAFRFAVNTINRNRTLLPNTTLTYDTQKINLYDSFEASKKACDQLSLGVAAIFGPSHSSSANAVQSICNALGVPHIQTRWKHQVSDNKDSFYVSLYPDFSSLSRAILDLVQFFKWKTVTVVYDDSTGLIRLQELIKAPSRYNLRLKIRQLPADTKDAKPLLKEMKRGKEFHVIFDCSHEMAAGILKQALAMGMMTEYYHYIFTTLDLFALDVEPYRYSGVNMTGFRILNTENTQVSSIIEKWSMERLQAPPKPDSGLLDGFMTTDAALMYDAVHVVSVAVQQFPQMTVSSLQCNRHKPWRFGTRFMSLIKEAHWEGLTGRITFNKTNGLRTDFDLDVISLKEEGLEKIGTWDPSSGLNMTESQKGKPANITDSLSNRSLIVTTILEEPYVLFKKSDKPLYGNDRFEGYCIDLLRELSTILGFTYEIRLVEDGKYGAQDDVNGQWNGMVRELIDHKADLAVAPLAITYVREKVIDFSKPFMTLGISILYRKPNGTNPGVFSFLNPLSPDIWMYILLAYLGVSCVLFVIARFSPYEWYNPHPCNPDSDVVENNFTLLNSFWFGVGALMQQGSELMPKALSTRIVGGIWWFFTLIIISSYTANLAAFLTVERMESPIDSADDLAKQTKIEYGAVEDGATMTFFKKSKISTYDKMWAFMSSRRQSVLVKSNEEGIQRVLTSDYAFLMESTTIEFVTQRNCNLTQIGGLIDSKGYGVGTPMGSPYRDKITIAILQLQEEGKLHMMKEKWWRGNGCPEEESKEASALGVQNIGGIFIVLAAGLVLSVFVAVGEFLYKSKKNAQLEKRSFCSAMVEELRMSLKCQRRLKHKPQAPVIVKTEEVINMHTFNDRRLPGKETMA
# T1 sequence (Q61626 15-979): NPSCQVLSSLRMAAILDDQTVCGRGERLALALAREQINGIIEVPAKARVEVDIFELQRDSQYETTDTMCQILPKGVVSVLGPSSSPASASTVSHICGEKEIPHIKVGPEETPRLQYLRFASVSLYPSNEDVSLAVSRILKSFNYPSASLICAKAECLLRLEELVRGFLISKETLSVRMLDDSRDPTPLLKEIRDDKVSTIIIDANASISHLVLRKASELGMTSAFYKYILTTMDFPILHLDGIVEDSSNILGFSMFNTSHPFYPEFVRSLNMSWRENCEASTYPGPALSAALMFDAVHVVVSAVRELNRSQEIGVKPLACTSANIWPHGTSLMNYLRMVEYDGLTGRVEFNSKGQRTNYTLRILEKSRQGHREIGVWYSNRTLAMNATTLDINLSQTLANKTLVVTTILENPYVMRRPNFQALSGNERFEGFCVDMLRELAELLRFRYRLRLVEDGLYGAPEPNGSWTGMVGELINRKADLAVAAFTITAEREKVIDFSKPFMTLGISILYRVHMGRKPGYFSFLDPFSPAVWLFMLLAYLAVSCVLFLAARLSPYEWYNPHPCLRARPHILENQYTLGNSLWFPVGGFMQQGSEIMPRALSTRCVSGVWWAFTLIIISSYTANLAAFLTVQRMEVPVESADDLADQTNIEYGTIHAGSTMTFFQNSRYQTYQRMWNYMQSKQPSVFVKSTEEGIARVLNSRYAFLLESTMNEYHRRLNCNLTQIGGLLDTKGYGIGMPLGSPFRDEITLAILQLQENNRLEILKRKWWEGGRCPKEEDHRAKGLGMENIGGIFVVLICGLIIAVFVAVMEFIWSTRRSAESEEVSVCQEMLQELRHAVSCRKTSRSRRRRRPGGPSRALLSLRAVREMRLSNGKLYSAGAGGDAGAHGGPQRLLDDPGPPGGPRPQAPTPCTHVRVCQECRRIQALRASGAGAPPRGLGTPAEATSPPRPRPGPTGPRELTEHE
# Protocol: as §1
# Cultured or acute slices were individually transferred to a recording chamber maintained at 30-32° C. and continuously perfused (2 ml/min) with oxygenated normal or adapted ACSF containing 5 μM gabazine. Local field potentials were made in the granule cell layer of the DG with glass electrodes (2-3 MΩ; filled with normal ACSF) using a DAM-80 amplifier (low filter, 1 Hz; […], 3 KHz; World Precision Instruments, Sarasota, Fla.). For evoked synaptic transmission, electrical stimulation was performed with a bipolar NiCh electrode (#762000, AM systems). […] Signals were analyzed off-line using Clampfit 9.2 (PClamp) and MiniAnalysis 6.0.1 (Synaptosoft, Decatur, Ga.). In organotypic slices, spontaneous EPSCs were recorded at the reversal potential for GABAergic currents (Vh=−70 mV). To characterize the nature and kinetic properties of fast and slow events, miniature EPSCs (mEPSCs) evoked in Sr2+ conditions (external Ca2+ was substituted with 1.2 mM Sr2+) were recorded in DGCs from GluK2−/− and WT slices. Electrical stimulation was made in the molecular layer in the continued presence of 5 μM gabazine and 40 μM D-APV; asynchronous mEPSCs were measured during the 300 ms period after the stimulus artifact. […] Filtered traces were also analyzed by Fourier analysis (Hamming) using Clampfit 9.2. In acute hippocampal slices, intensity of antidromically-evoked bursts was quantified using coastline index (Epsztein et al., 2005).
# AMPARs = test: Remaining fast (AMPAR-mediated) EPSCs in dentate granule cells of GluK2-/- organotypic slices; type: cell-based, mouse; settings: 30 μM, data not shown
# Protocol: as §1
# Cultured or acute slices were individually transferred to a recording chamber maintained at 30-32° C. and continuously perfused (2 ml/min) with oxygenated normal or adapted ACSF containing 5 μM gabazine. […] Signals were analyzed off-line using Clampfit 9.2 (PClamp) and MiniAnalysis 6.0.1 (Synaptosoft, Decatur, Ga.). In organotypic slices, spontaneous EPSCs were recorded at the reversal potential for GABAergic currents (Vh=−70 mV). To characterize the nature and kinetic properties of fast and slow events, miniature EPSCs (mEPSCs) evoked in Sr2+ conditions (external Ca2+ was substituted with 1.2 mM Sr2+) were recorded in DGCs from GluK2−/− and WT slices. […] Filtered traces were also analyzed by Fourier analysis (Hamming) using Clampfit 9.2. […]
# [3] = slices from WT mice, 10 μM SYM2081 or 5 μM UBP310
compound,measurement,setting,value
"NS(=O)(=O)c1cc2c(cc1Cl)NC(C1CC3C=CC1C3)NS2(=O)=O (stereo not drawn) [CTZ, cyclothiazide]",recovery of reduced interictal-like activity in GluK2-/- slices,"[1]; GluK2-/- slices, bath application",could be recovered
N[C@H](C(=O)O)C1[C@@H](C(=O)O)[C@@H]1C(=O)O (stereo partly drawn) [DCGIV],inhibition of KAR-mediated EPSCs,[2],84%
CNC(=O)N1N=C(c2ccc(N)cc2)c2cc3c(cc2CC1C)OCO3 (stereo not drawn) [GYKI53655],effect on KAR-mediated mEPSCs,"KARs; WT cultured slices, SYM2081 10 μM, UBP310 5 μM, Sr2+ conditions, 5 μM gabazine, 40 μM D-APV",insensitive
same,block of remaining fast EPSCs,AMPARs,fully blocked
"C[C@H](C[C@H](N)C(=O)O)C(=O)O [SYM2081, (2S,4R)-4-Methylglutamate]",alteration of the PD phase (power of paroxysmal discharge),[1]; [3],No significant alteration
same,reduction of power of the bursts in the late MB phase,[1]; [3],68%
same,reduction of frequency of interictal-like activity,"[1]; slices from WT mice, 10 μM SYM2081 or 5 μM UBP310, 5 mM K+ ACSF, 5 μM gabazine",47%
same,frequency of interictal-like activity,"[1]; slices from WT mice, 10 μM SYM2081 or 5 μM UBP310, without antagonist 3.2±0.4, mean±SEM",1.69±0.3 events/min
same,effect on KAR-mediated mEPSCs,KARs,abolished
